Data published in patent US8901118B2, “Compounds and methods for kinase modulation, and indications therefor” (Plexxikon Inc., priority 2010, dated 2014).

Experiments:
BCR-FMS BaF3 cells = assay: Splenomegaly mouse model, BCR-FMS BaF3 cells; type: in vivo
Protocol: BaF3 cells are engineered with any of BCR-FMS, BCR-TRK1 or BCR-TRK2 to assess in vivo inhibitory effects of Fms, TrkA or TrkB inhibition, respectively. BaF3 cells are maintained in growth media (RPMI containing 10% FBS, 1% PenStrep, 1% NEAA, and 1% L-Glutamine, supplemented with 5% murine IL-3 and 1 mg/mL G418). Four days prior to start, 2×10^6 cells are inoculated into a T150 vented flask using the growth media and incubated at 37° C. in 5% CO2 for three days. One day prior to start, cells are collected by centrifugation and are suspended in growth media without IL-3. On the day of cell implant, the cells are collected by centrifugation, rinsed 3×20 mL with RPMI, then are suspended in 5.4 mL of media and counted, then adjusted with additional RPMI as needed to give 5×10^7 cells/mL. On day 1, female nu/nu mice at 5-6 weeks of age are injected intravenously with BaF3 cells injected injecting 0.1 mL (5×10^6) cells in the tail vein (mice without cell injected are included as control group). Compound stocks in dimethylsulfoxide are stored at room temperature protected from light. Stocks are diluted prior to dosing, diluting 22 μL of compound stock into 858 μL of diluent (or 50 μL into 1950 μL) to provide vehicle of 1.0% Polysorbate 80, 0.5% hydroxypropyl methyl cellulose, with final dimethylsulfoxide at 2.5% in all dosing suspensions and vehicle control. Dosing suspension is prepared prior to use, mixing by inversion and sonication in a water bath to make a uniform suspension. On days 10-18, mice are treated with vehicle only or the desired level of compound in vehicle, ˜0.2 mL per 25 gm mouse, once a day by oral gavage, or in some instances, twice per day. On day 18, mice are administered a final dose and two hours later a plasma sample is taken. At four hours following the final dose, mice are sacrificed, an additional plasma sample is collected and mouse spleens are removed and weighed. The average spleen weight of vehicle control group mice is compared to the average spleen weight of the test compound mice. Percent spleen growth inhibition is calculated as 100×[(spleen weight vehicle control-spleen weight test compound)/spleen weight vehicle control]. In some instances, the compounds were not tested in all of the assays as indicated by NA in the table below.

SKNSH cells = assay: SKNSH (human neuroblastoma) cell proliferation assay (ATPlite); type: cell-based; details: SK-N-SH, read-out: Inhibition of Cell Proliferation IC50, SKNSH
Protocol: Compounds are assessed in a variety of cell based assays. For example BaF3 cells engineered with any of BCR-FMS, BCR-KIT, BCR-FLT3, BCR-NTRK1, BCR-NTRK2, and BCR-NTRK3, are used in cell proliferation assays to assess inhibitory activity of Fms, Kit, Flt-3, TrkA, TrkB, and TrkC, respectively. An MV-4-11 (leukemia) cell proliferation assay is used to assess inhibitory activity in Flt-3, and SKNSH (human neuroblastoma) cell proliferation assay is used to assess efficacy of Fms/Trk inhibitors. Additional cells may be assayed similarly to assess the efficacy of Fms/Trk inhibitors, such as MiaPaCa (human pancreatic cancer) and Capan-1 (human pancreatic carcinoma) cells. Reagent and assay conditions are as follows: • BaF3 cells: • Maintained in RPMI containing 10% FBS, 1% PenStrep, 1% NEAA, and 1% L-Glutamine, supplemented with 1 mg/mL G418 and 5% WEHI-CM (or recombinant murine IL-3). • Confluent cells are split 1:50 to 1:100 every 3-4 days. • MV-4-11 cells: • Maintained in Iscove's Modified Dulbecco's Medium containing 10% FBS. • Confluent cells are split 1:4 every 3-4 days. • SKNSH cells: RPMI containing 10% FBS. On day 1, cells are counted, then centrifuged in a conical tube for 5 minutes at 1000 rpm. The supernatant is removed and cells are re-suspended as follows: • BaF3: resuspend in growth media +1 mg/mL G418 (without WEHFIL-3) to 2×10^5 cells/mL. • MV-4-11: resuspend in growth media to 5×10^5 cells/mL. • SKNSH: resuspend in growth media to 2×10^4 cells/mL. The cells are plated (50 μL, 150 μL for SKNSH cells) in each well of a 96-well dish (Corning 3610) and incubated at 37° C. in 5% CO2 overnight, cells plated to a final concentration of cells as follows: • BaF3: 10,000 cells per well. • MV-4-11: 25,000 cells per well. • SKNSH: 3,000 cells per well. On day 2, compound at a maximum concentration of 5 mM is serially diluted 1:3 for a total of 8 point titration with DMSO as a control. A 1 μL aliquot of each dilution point is added to 249 μL growth media and 50 μL is added to a well containing cells, providing 10 μM compound for the maximum concentration point. The cells are incubated for 3 days at 37° C. in 5% CO2. For SKNSH cells, a 0.75 μL aliquot of appropriate dilution in DMSO is added to 150 μL of cells. On day 5, ATPlite 1 step Luminescence Assay System (Perkin Elmer #6016739) is brought to room temperature along with the cell cultures. ATPlite is added to each well as follows: • BaF3: 25 μL per well. • MV-4-11: 40 μL per well. • SKNSH: 20 μL per well. The cells are incubated at room temperature for 10 minutes, then luminescence is read on Safire reader. The measured luminescence correlates directly with cell number, such that the reading as a function of compound concentration is used to determine the IC50 value.
It is understood that the results of these assays may vary as assay conditions are varied. Inhibition levels determined under the conditions described herein represent a relative activity for the compounds tested under the specific conditions employed. The cell based assays are likely to show variability due to the complexity of the system and the sensitivity thereof to any changes in the assay conditions. […] Results for compounds that are tested and show substantially no inhibition below the highest tested concentration are represented as “-” in the tables below. In some instances, the compounds were not tested in all of the assays, or assay results were not valid, as indicated by NA in the tables below.

[1] = dosed once per day at 10 mg per kg

Compound | IC50 (SKNSH cells) [nM] | % spleen growth inhibition, Fms (BCR-FMS BaF3 cells; [1]) [%] | % spleen growth inhibition, Fms (BCR-FMS BaF3 cells; dosed at 5 mg/kg) [%]
Cc1cnc2[nH]cc(Cc3cnc(Nc4ccc(F)cc4)nc3)c2c1 [Compound P-3010, (4-Fluoro-phenyl)-[5-(5-methyl-1H-pyrrolo[2,3-b]pyridin-3-ylmethyl)-pyrimidin-2-yl]-amine] | – | 47 | –
Fc1nc(NC2CCC(F)(F)CC2)ccc1Cc1c[nH]c2ncc(Cl)cc12 [Compound P-3013, [5-(5-Chloro-1H-pyrrolo[2,3-b]pyridin-3-ylmethyl)-6-fluoro-pyridin-2-yl]-(4,4-difluoro-cyclohexyl)-amine] | – | 48 | –
O=C(c1ccc(NC2CCC(F)(F)CC2)nc1F)c1c[nH]c2ncnc(NCC(F)(F)F)c12 [Compound P-4061, [6-[(4,4-difluorocyclohexyl)amino]-2-fluoro-3-pyridyl]-[4-(2,2,2-trifluoroethylamino)-7H-pyrrolo[2,3-d]pyrimidin-5-yl]methanone] | – | 48 | –
COc1ccc(Nc2ccc(C(=O)c3c[nH]c4ncnc(NCC(F)(F)F)c34)c(F)n2)cn1 [Compound P-4084, [2-fluoro-6-[(6-methoxy-3-pyridyl)amino]-3-pyridyl]-[4-(2,2,2-trifluoroethylamino)-7H-pyrrolo[2,3-d]pyrimidin-5-yl]methanone] | < 10000 | 6.2 | –
CNc1ncnc2[nH]cc(C(=O)c3ccc(Nc4cncc(OC)c4)nc3F)c12 [Compound P-4108, [2-fluoro-6-[(5-methoxy-3-pyridyl)amino]-3-pyridyl]-[4-(methylamino)-7H-pyrrolo[2,3-d]pyrimidin-5-yl]methanone] | > 1000 | – | –
CC(C)Nc1ncnc2[nH]cc(C(=O)c3ccc(NC4CCCCC4)nc3Cl)c12 [Compound P-4109, [2-chloro-6-(cyclohexylamino)-3-pyridyl]-[4-(isopropylamino)-7H-pyrrolo[2,3-d]pyrimidin-5-yl]methanone] | < 10000 | – | –
CNc1ncnc2[nH]cc(C(=O)c3ccc(NC4CCCCC4)nc3Cl)c12 [Compound P-4110, [2-chloro-6-(cyclohexylamino)-3-pyridyl]-[4-(methylamino)-7H-pyrrolo[2,3-d]pyrimidin-5-yl]methanone] | < 10000 | 30 | –
Cc1ccc(Nc2ccc(C(=O)c3c[nH]c4ncnc(NCC(F)(F)F)c34)c(F)n2)cn1 [Compound P-4112, [2-fluoro-6-[(6-methyl-3-pyridyl)amino]-3-pyridyl]-[4-(2,2,2-trifluoroethylamino)-7H-pyrrolo[2,3-d]pyrimidin-5-yl]methanone] | < 10000 | 9.5 | –
CCc1ccc(Nc2ccc(C(=O)c3c[nH]c4ncnc(NCC(F)(F)F)c34)c(F)n2)cn1 [Compound P-4120, [6-[(6-ethyl-3-pyridyl)amino]-2-fluoro-3-pyridyl]-[4-(2,2,2-trifluoroethylamino)-7H-pyrrolo[2,3-d]pyrimidin-5-yl]methanone] | < 1000 | 37 | –
CCc1ccc(Nc2ccc(C(=O)c3c[nH]c4ncnc(NC)c34)c(F)n2)cn1 [Compound P-4124, [6-[(6-ethyl-3-pyridyl)amino]-2-fluoro-3-pyridyl]-[4-(methylamino)-7H-pyrrolo[2,3-d]pyrimidin-5-yl]methanone] | < 1000 | 20 | –
Fc1cc(Cc2c[nH]c3ncnc(NC4CC4)c23)cnc1NC1CCC(F)(F)CC1 [Compound P-4127, N-cyclopropyl-5-[[6-[(4,4-difluorocyclohexyl)amino]-5-fluoro-3-pyridyl]methyl]-7H-pyrrolo[2,3-d]pyrimidin-4-amine] | < 10000 | – | –

Further lines, with some results ahead:

IC50 (SKNSH cells) [nM] | Compound | % spleen growth inhibition, Fms (BCR-FMS BaF3 cells; [1]) [%] | % spleen growth inhibition, Fms (BCR-FMS BaF3 cells; dosed at 5 mg/kg) [%]
< 1000 | O=C(c1ccc(NC2CCC(F)(F)CC2)nc1F)c1c[nH]c2ncnc(NC3CC3)c12 [Compound P-4062, [4-(cyclopropylamino)-7H-pyrrolo[2,3-d]pyrimidin-5-yl]-[6-[(4,4-difluorocyclohexyl)amino]-2-fluoro-3-pyridyl]methanone] | 76 | –
< 1000 | O=C(c1ccc(Nc2ccc(C3CC3)nc2)nc1F)c1c[nH]c2ncnc(NCC(F)(F)F)c12 [Compound P-4090, [6-[(6-cyclopropyl-3-pyridyl)amino]-2-fluoro-3-pyridyl]-[4-(2,2,2-trifluoroethylamino)-7H-pyrrolo[2,3-d]pyrimidin-5-yl]methanone] | – | 38
< 1000 | COc1cncc(Nc2ccc(C(=O)c3c[nH]c4ncnc(NC5CC5)c34)c(F)n2)c1 [Compound P-4107, [4-(cyclopropylamino)-7H-pyrrolo[2,3-d]pyrimidin-5-yl]-[2-fluoro-6-[(5-methoxy-3-pyridyl)amino]-3-pyridyl]methanone] | – | –
< 100 | CCNc1ncnc2[nH]cc(C(=O)c3ccc(Nc4ccc(CC)nc4)nc3F)c12 [Compound P-4123, [4-(ethylamino)-7H-pyrrolo[2,3-d]pyrimidin-5-yl]-[6-[(6-ethyl-3-pyridyl)amino]-2-fluoro-3-pyridyl]methanone] | – | 14
< 100 | COc1ccc(Nc2ccc(C(=O)c3c[nH]c4ncnc(NC5CC5)c34)c(F)n2)cn1 [Compound P-4126, [4-(cyclopropylamino)-7H-pyrrolo[2,3-d]pyrimidin-5-yl]-[2-fluoro-6-[(6-methoxy-3-pyridyl)amino]-3-pyridyl]methanone] | – | –
